Measurements as given in US11571418B2, “Platinum compounds that inhibit constitutive STAT3 signaling and induce cell cycle arrest and apoptosis of malignant cells” (H. LEE MOFFITT CANCER CENTER AND RESEARCH INSTITUTE, INC., priority 2011, dated 2023).

Assays:
inactive Stat1 monomer = molecular target: T1, inactive Stat1 monomer (Homo sapiens, UniProt P42224); experiment: Inactive STAT monomer added to activated Stat3 before EMSA (titration of compound); format: binding; details: monomer added to activated Stat3, pre-incubated with compound 30 min
T1 construct: made in house; host or cells: Sf-9 insect cells infected with baculovirus

MDA-MB-231 = experiment: Cell cycle analysis by BrdU labeling and flow cytometry; format: cell-based, human
Experimental: (§1) FIG. 6. Analysis of relative cellular DNA content using BrdU labeling and flow cytometry. Relative DNA content of human breast cancer cell lines following treatment with or without PLATINUM-401 was analyzed by BrdU incorporation and flow cytometry. The population of cells determined from the relative DNA content is shown in each panel for each treatment condition. Results are the representative of 3 independent determinations.
(§2) Cell proliferation and TUNEL assays—Proliferating cells were first treated with or without PLATINUM-401 for up to 48 h. A portion of cells were harvested for BrdU incorporation following the manufacturer's (BD Biosciences Pharmingen, San Diego, Calif.) instructions and analyzed by flow cytometry. Harvested cells were also analyzed for apoptosis via detection of TdT-mediated dUTP nick-end labeling (TUNEL) assay using Apoptosis Detection Systems Fluorescein according to the manufacturer's (Roche, Indianapolis, Ind.) instructions. Oligonucleotides and plasmids Transfections. The Stat3 antisense (5′-[…]-3′) (SEQ ID NO:3) or control mismatch oligonucleotides (5′-[…]-3′) (SEQ ID NO:4) were synthesized using phosphorothioate chemistry and were synthesized with 2′-Omethoxyethyl modification of the five terminal nucleotides (underlined; (Mora et al., 2002; Karras et al., 2000)) to increase stability. Transfections of Stat3AS and plasmids were carried out with Lipofectamine 2000 (LF) according to the manufacturer's instructions (Invitrogen, Carlsbad, Calif.). Briefly, cells were seeded at 1-2×10^6 cells/10-cm tissue-culture plates 18 h before transfection. Immediately before transfection, cells were washed once with PBS. Cells were transfected with luciferase reporters (4 μg) in the presence or absence of v-Src (4 μg), or were transfected with Stat3β (4 μg) or pRC/CMV Stat3 Flag (4 μg). […]
(§3) The inventors further examined the biological effects of PLATINUM-401 and determined whether any changes might correlate with the inhibition of constitutively-active Stat3. […]

MDA-MB-453 [1] = experiment: as above; format: cell-based, human; details: no constitutively-active Stat3
Experimental: as §1, §2, §3

A549 = experiment: TUNEL analysis of apoptosis; format: cell-based, human; details: 48 h
Description: (§4) FIGS. 7A-7C. TUNEL analysis of PLATINUM-401-mediated apoptosis. (FIG. 7A) Normal NIH3T3 fibroblasts and their v-Src-transformed counterparts (NIH3T3/v-Src), human breast carcinoma cell lines (MDA-MB-453, MDA-MB-435, MDA-MB-468, and MDA-MB-231), human non-small cell lung cancer cell line (A549), human prostate cancer cell line (DU145), multiple myeloma 5TGM1 (mouse) and U266 (human) cell lines, mouse melanoma cell line (B16) and human pancreatic cancer cell line (Panc1) were all treated with or without PLATINUM-401 for 48 h and analyzed by TUNEL for DNA damage. For each cell line, the activated Stat3 status is indicated as (−), no constitutively-active Stat3 and (+), constitutively-active Stat3 (see FIG. 5A). Data are representative of 3 independent determinations; (FIG. 7B) Human breast cancer cell lines (MDA-MB-453, MDA-MB-468 and MDA-MB-435) were transfected with or without Stat3β or Stat3 antisense (Stat3AS), or were treated with or without Stat3 peptidomimetic inhibitor, ISS 610 (1 mM) or PLATINUM-401 (5 μM)). Forty-eight hours afterwards, cells were harvested and processed for TUNEL analysis; (FIG. 7C) The viral Src-transformed NIH3T3/v-Src fibroblasts were transfected with or without wild-type Stat3 (pRc/CMV Stat3 Flag) and treated with or without 5 μM PLATINUM-401 for 36 h. Cells were subsequently harvested for nuclear extracts preparation and Stat3 DNA-binding assay in vitro with EMSA analysis (left panel), or were processed for TUNEL analysis (right panel).
(§5) Cell proliferation and TUNEL assays—Proliferating cells were first treated with or without PLATINUM-401 for up to 48 h. A portion of cells were harvested for BrdU incorporation following the manufacturer's (BD Biosciences Pharmingen, San Diego, Calif.) instructions and analyzed by flow cytometry. Harvested cells were also analyzed for apoptosis via detection of TdT-mediated dUTP nick-end labeling (TUNEL) assay using Apoptosis Detection Systems Fluorescein according to the manufacturer's (Roche, Indianapolis, Ind.) instructions. Oligonucleotides and plasmids Transfections. The Stat3 antisense (5′-[…]-3′) (SEQ ID NO:3) or control mismatch oligonucleotides (5′-[…]-3′) (SEQ ID NO:4) were synthesized using phosphorothioate chemistry and were synthesized with 2′-Omethoxyethyl modification of the five terminal nucleotides (underlined; (Mora et al., 2002; Karras et al., 2000)) to increase stability. Transfections of Stat3AS and plasmids were carried out with Lipofectamine 2000 (LF) according to the manufacturer's instructions (Invitrogen, Carlsbad, Calif.). Briefly, cells were seeded at 1-2×10^6 cells/10-cm tissue-culture plates 18 h before transfection. Immediately before transfection, cells were washed once with PBS. Cells were transfected with luciferase reporters (4 μg) in the presence or absence of v-Src (4 μg), or were transfected with Stat3β (4 μg) or pRC/CMV Stat3 Flag (4 μg). Stat3AS transfections were carried out LF alone, or with LF/Stat3 antisense oligonucleotides, or LF/Stat3 mismatch oligonucleotides (final concentration of the oligonucleotides was 250 nM). After 2-3 h, the transfection medium was aspirated and cells washed with PBS before fresh medium added containing 10% FBS was added.
(§6) Cells were analyzed for DNA-strand breaks by TUNEL staining. […] The incidence of apoptosis correlated with the prevalence of constitutively-active Stat3 in malignant cells (FIG. 7, lower panel). Moreover, the incidence of apoptosis by PLATINUM-401 in breast cancer cell lines (MDA-MB-468 and MDA-MB-435) harboring constitutively-active Stat3 compares favorably to that induced by other previously investigated Stat3 inhibitory approaches, such as Stat3β (Garcia et al., 2001), Stat3 antisense (Stat3AS) (Mora et al., 2002), peptidomimetic inhibitor of Stat3 (ISS 610) (FIG. 7B) (Turkson et al., 2004c), and contrasts with the absence of apoptosis in breast cancer cell line, MDA-MB-453 that lacks constitutively-active Stat3. […]

DU145 = experiment: TUNEL analysis of apoptosis; format: cell-based, human; details: 48 h
Description: as §4, §5, §6

MDA-MB-435 = experiment: TUNEL analysis of apoptosis; format: cell-based, human; details: 48 h
Description: as §4, §5, §6

MDA-MB-453 [2] = experiment: TUNEL analysis of apoptosis; format: cell-based, human; details: 48 h, no aberrant Stat3 activity
Description: as §4, §5, §6

MDA-MB-468 = experiment: TUNEL analysis of apoptosis; format: cell-based, human; details: 48 h
Description: as §4, §5, §6

MDA-MD-231 = experiment: TUNEL analysis of apoptosis; format: cell-based, human; details: 48 h
Description: as §4, §5, §6

Panc1 = experiment: TUNEL analysis of apoptosis; format: cell-based, human; details: 48 h
Description: as §4, §5, §6

U266 = experiment: TUNEL analysis of apoptosis; format: cell-based, human; details: 48 h
Description: as §4, §5, §6

T1 sequence (P42224 whole entry): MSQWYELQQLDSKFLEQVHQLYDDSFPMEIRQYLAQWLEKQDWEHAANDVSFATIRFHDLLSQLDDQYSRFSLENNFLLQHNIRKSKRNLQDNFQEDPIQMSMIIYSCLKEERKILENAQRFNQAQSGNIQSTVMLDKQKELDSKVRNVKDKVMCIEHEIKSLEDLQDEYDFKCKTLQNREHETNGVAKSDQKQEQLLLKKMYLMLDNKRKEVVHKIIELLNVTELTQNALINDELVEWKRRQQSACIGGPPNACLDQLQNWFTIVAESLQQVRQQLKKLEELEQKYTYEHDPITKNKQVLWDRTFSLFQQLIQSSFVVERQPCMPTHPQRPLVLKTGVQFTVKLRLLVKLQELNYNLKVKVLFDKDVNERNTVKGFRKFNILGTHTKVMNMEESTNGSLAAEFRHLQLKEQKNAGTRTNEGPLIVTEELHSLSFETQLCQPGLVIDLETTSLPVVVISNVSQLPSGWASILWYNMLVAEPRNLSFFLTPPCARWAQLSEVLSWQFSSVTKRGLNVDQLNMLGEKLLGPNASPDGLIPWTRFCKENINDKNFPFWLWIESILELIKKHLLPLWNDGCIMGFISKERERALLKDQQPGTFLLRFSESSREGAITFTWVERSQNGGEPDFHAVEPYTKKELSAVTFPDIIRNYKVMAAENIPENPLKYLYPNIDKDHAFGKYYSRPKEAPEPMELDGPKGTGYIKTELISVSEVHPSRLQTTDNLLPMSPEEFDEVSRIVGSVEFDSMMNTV

Question: With CC(O)CN1CCN(CC(C)O)CC1 (stereo not drawn) [PLATINUM-401] as the molecule, how does the “interaction with inactive Stat1 monomer” value (inactive Stat1 monomer) read?
Answer: also interacts

Question: And the cell cycle change (MDA-MB-231; BrdU, flow cytometry)?
Answer: arrested at G0/G1 phase

Question: And the S phase cells (MDA-MB-231; persists up to 48 h)?
Answer: significant decrease

Question: What about the cell cycle profile (MDA-MB-453 [1]) of the same molecule?
Answer: no significant change

Question: What about the TUNEL staining (A549) of the same molecule?
Answer: Significant TUNEL staining

Question: And the TUNEL staining (DU145)?
Answer: Significant TUNEL staining

Question: And the TUNEL staining (MDA-MB-435)?
Answer: Significant TUNEL staining

Question: What about the TUNEL staining (MDA-MB-453 [2]) of the same molecule?
Answer: no TUNEL staining

Question: And the TUNEL staining (MDA-MB-468)?
Answer: Significant TUNEL staining

Question: What about the TUNEL staining (MDA-MD-231) of the same molecule?
Answer: Significant TUNEL staining

Question: And the TUNEL staining (Panc1)?
Answer: Significant TUNEL staining

Question: What about the TUNEL staining (U266) of the same molecule?
Answer: Significant TUNEL staining
